The values that follow are results of earlier work, collected in patent US8507276B2, “Tissue culture media used as a component of cosmetics” (La Prairie Group AG, priority 2003, dated 2013).

Like-named read-outs stand apart in the source and are kept apart here.

Consider `CCCCCCCCOC(=O)OCCCCCCCC` [Cetiol CC, Dicarpylyl Carbonate], for which, under “nonpolar lipids”, the Polarity is 31.7 mN/m.
As for C12-13 Alkyl Lactate [Cosmacol ELI], the Polarity (polar lipids) is reported as 8.8 mN/m.
Consider C12-15 Alkyl Benzoate [Finsolv TN], for which the Polarity (medium-polar lipids) is given as 21.8 mN/m.
With “Caprylic/Capric Triglyceride [Miglyol 812]”, the Polarity (medium-polar lipids) is given as 21.3 mN/m.
As for Cetearyl Isononanoate [Cetiol SN], the Polarity (medium-polar lipids) is recorded as 28.6 mN/m.
For Decyl Olivate [Lipodermanol OL], the Polarity (nonpolar lipids) is recorded as 40.3 mN/m.
In the case of Octyl Cocoate [Estol 1540 EHC], under “nonpolar lipids”, the Polarity is on record as 30.0 mN/m.
Take “Propylene Glycol Dicaprylate/Dicaprate [Miglyol 840]”: the Polarity (polar lipids) is on record as 18.7 mN/m.
